# In US20250179057A1, “MEK IMMUNE ONCOLOGY INHIBITORS AND THERAPEUTIC USES THEREOF” (Immuneering Corporation, priority 2022, published 2025):
# Key:
# [1] = tested on: phospho-ERK in A375 cells; experiment: Cell-based pERK (pERK:tERK) in A375 cells; settings: A375 (BRAF p.V600E); 100 nM
# Procedure: Materials and Methods: A549 or A375 cells were seeded in 6-well plates at an appropriate seeding density on day 0. On day 2 or 3, after checking the health and confluency of cells, the media was aspirated and replaced with 1 mL media containing a predetermined concentration of compound and incubated for 2 hours. After 2 hours, the media was aspirated, and the cells washed 2 times with cold PBS. Cells were lysed on ice, with 50 uL 1×CST lysis buffer +1 mM PMSF for 5 minutes. After 5 minutes, cells were removed using a scraper and transferred to cold 1.5 mL tubes, and centrifuged for 10 min, 4° C., 14,000×g. Supernatant was gently removed and snap frozen in liquid nitrogen. Protein concentration of the lysate was determined using Bradford Reagent (analyzed using SpectraMax M2E) and diluted to 1 mg/mL or pERK or 1.5 mg/mL for pMEK analysis. […] All dilutions were in Milk-free antibody diluent.
# A549 or […] cells were treated in duplicate for two hours with compounds at varying concentrations. After two hours, the cells were lysed, snap frozen, and stored at −80° C. After storage, the lysate was quantified with the Bradford assay. Before the lysates were prepared to run on the Jess, the lysates were diluted to 1 mg/mL for pERK analysis and 1.5 mg/mL pMEK analysis using quantitative Western blotting. ERK and MEK phosphorylation levels were estimated by taking the ratio of phospho-protein to total protein and normalizing to the DMSO control.
# (§1) The nine models are described in Table 16.
# [2] = tested on: phospho-MEK in SK-MEL-28 cells; experiment: pMEK/tMEK ratio in SK-MEL-28 melanoma model; assay type: cell-based; settings: SK-MEL-28 (BRAF p.V600E); 100 nM
# Procedure: (§2) Compound (drug) treatment: Cells were plated in a 6-well plate at a density of 250,000-300,000 cells/well in 3 mL media and incubated 37° C. in a humidified, 5% CO2 incubator. […] These solutions were added to the cells (3 uL/well), mixed by swirling the plate, and incubated at 37° C. in a humidified, 5% CO2 incubator for 2 hours.
# (§3) Cell lysis and protein estimation: Cells were washed with PBS, and scraped in 50 μL of lysis buffer containing protease and phosphatase inhibitors. Cell lysates were stored at −20° C. Cell lysates were thawed and spun at 12,000 rpm for one minute, 3 ul of the supernatant was added to 500 μL of Coomassie blue reagent following by 500 μL of water. […] Protein standards were used (0-20 mg/mL) to calculate protein concentrations of test samples.
# (§4) All samples were heated at 95° C. for 5 minutes, cooled to room temperature and spun down. […] After the run, gel was removed and protein transfer was done using iBlot for 7 minutes, as per manufacturer's recommendations. After the transfer, nitrocellulose membrane was incubated on a shaker in 5 mL of blocking buffer at room temperature for 1 hr. The blot was then incubated overnight on a shaker in 5 ml of blocking buffer containing 0.2% Tween-20 and primary antibody, at room temperature. Anti-phospho-STAT3 antibody was used at a dilution of 1:500, the other 3 primary antibodies were used at a dilution of 1:1000.
# (§5) Next day, the blot was washed 3 times for 10 min each with 10 mL of TBST followed by incubation on a shaker in 5 ml of blocking buffer containing 0.2% Tween-20 and 0.5 ul of the IRDye labeled secondary antibodies, diluted 1:10000, at room temperature for 1 hr. The blot was then washed 3 times for 10 min each with 10 mL of TBST and dried between sheets of paper towels. Imaging was done using LICOR's Odyssey imaging system, quantitation was done using their software, Image Studio version 3.1.
# as §1
# [3] = tested on: phospho-ERK in Hs852.T cells; experiment: pERK/tERK ratio in Hs852.T melanoma model; assay type: cell-based; settings: Hs852.T (NRAS p.G12V); 100 nM
# Procedure: as §2, §3, §4, §5, §1
# [4] = tested on: phospho-MEK in A375 cells; experiment: pMEK/tMEK ratio in A375 melanoma model; assay type: cell-based; settings: A375 (BRAF p.V600E); 100 nM
# Procedure: as §2, §3, §4, §5, §1
# [5] = tested on: phospho-MEK in Hs852.T cells; experiment: pMEK/tMEK ratio in Hs852.T melanoma model; assay type: cell-based; settings: Hs852.T (NRAS p.G12V); 100 nM
# Procedure: as §2, §3, §4, §5, §1
# [6] = tested on: phospho-ERK in MEL-JUSO cells; experiment: pERK/tERK ratio in MEL-JUSO melanoma model; assay type: cell-based; settings: MEL-JUSO (HRAS p.G13D, NRAS p.Q61L); 100 nM
# Procedure: as §2, §3, §4, §5, §1
# [7] = tested on: phospho-ERK in SK-MEL-30 cells; experiment: pERK/tERK ratio in SK-MEL-30 melanoma model; assay type: cell-based; settings: SK-MEL-30 (NRAS p.Q61K); 100 nM
# Procedure: as §2, §3, §4, §5, §1
# [8] = tested on: phospho-ERK in MM415 cells; experiment: pERK/tERK ratio in MM415 melanoma model; assay type: cell-based; settings: MM415 (NRAS p.Q61L); 100 nM
# Procedure: as §2, §3, §4, §5, §1
# [9] = tested on: phospho-MEK in MM415 cells; experiment: pMEK/tMEK ratio in MM415 melanoma model; assay type: cell-based; settings: MM415 (NRAS p.Q61L); 100 nM
# Procedure: as §2, §3, §4, §5, §1
# [10] = tested on: phospho-MEK in MeWo cells; experiment: pMEK/tMEK ratio in MeWo melanoma model; assay type: cell-based; settings: MeWo (NF1 LoF); 100 nM
# Procedure: as §2, §3, §4, §5, §1
# [11] = tested on: phospho-MEK in MEL-JUSO cells; experiment: pMEK/tMEK ratio in MEL-JUSO melanoma model; assay type: cell-based; settings: MEL-JUSO (HRAS p.G13D, NRAS p.Q61L); 100 nM
# Procedure: as §2, §3, §4, §5, §1
# [12] = PubChem Compound Summary; cited from earlier work
# [13] = tested on: phospho-ERK in SK-MEL-2 cells; experiment: pERK/tERK ratio in SK-MEL-2 melanoma model; assay type: cell-based; settings: SK-MEL-2 (NRAS p.Q61R); 100 nM
# Procedure: as §2, §3, §4, §5, §1
# [14] = tested on: phospho-MEK in MM127 cells; experiment: pMEK/tMEK ratio in MM127 melanoma model; assay type: cell-based; settings: MM127 (NRAS p.G13R, BRAF p.G464E); 100 nM
# Procedure: as §2, §3, §4, §5, §1
# [15] = tested on: phospho-MEK in SK-MEL-2 cells; experiment: pMEK/tMEK ratio in SK-MEL-2 melanoma model; assay type: cell-based; settings: SK-MEL-2 (NRAS p.Q61R); 100 nM
# Procedure: as §2, §3, §4, §5, §1
# [16] = tested on: phospho-MEK in SK-MEL-30 cells; experiment: pMEK/tMEK ratio in SK-MEL-30 melanoma model; assay type: cell-based; settings: SK-MEL-30 (NRAS p.Q61K); 100 nM
# Procedure: as §2, §3, §4, §5, §1
# [17] = tested on: phospho-ERK in MM127 cells; experiment: pERK/tERK ratio in MM127 melanoma model; assay type: cell-based; settings: MM127 (NRAS p.G13R, BRAF p.G464E); 100 nM
# Procedure: as §2, §3, §4, §5, §1
# [18] = tested on: phospho-ERK in MeWo cells; experiment: pERK/tERK ratio in MeWo melanoma model; assay type: cell-based; settings: MeWo (NF1 LoF); 100 nM
# Procedure: as §2, §3, §4, §5, §1
# [19] = tested on: phospho-ERK in SK-MEL-28 cells; experiment: pERK/tERK ratio in SK-MEL-28 melanoma model; assay type: cell-based; settings: SK-MEL-28 (BRAF p.V600E); 100 nM
# Procedure: as §2, §3, §4, §5, §1
smiles,measurement,setting,value
Cn1cnc2c(F)c(Nc3ccc(Br)cc3F)c(C(=O)NOCCO)cc21 [Binimetinib],pERK/tERK ratio normalized to DMSO,[1],0.136
same,pMEK/tMEK ratio normalized to DMSO,[2],1.055
same,pERK/tERK ratio normalized to DMSO,[3],0.203
same,pMEK/tMEK ratio normalized to DMSO,[4],1.062
same,pMEK/tMEK ratio normalized to DMSO,[5],6.489
same,pERK/tERK ratio normalized to DMSO,[6],0.139
same,pERK/tERK ratio normalized to DMSO,[7],0.082
same,pERK/tERK ratio normalized to DMSO,[8],0.056
same,pMEK/tMEK ratio normalized to DMSO,[9],3.055
same,pMEK/tMEK ratio normalized to DMSO,[10],7.42
same,pMEK/tMEK ratio normalized to DMSO,[11],3.291
same,human plasma drug half-life,[12],3.5 h
same,pERK/tERK ratio normalized to DMSO,[13],0.125
same,pMEK/tMEK ratio normalized to DMSO,[14],3.009
same,pMEK/tMEK ratio normalized to DMSO,[15],2.587
same,pMEK/tMEK ratio normalized to DMSO,[16],2.649
same,pERK/tERK ratio normalized to DMSO,[17],0.199
same,pERK/tERK ratio normalized to DMSO,[18],0.161
same,pERK/tERK ratio normalized to DMSO,[19],0.079
